The values below come from patent US5561150A, “Tricyclic pyrazole derivatives” (Hoffman-La Roche Inc., priority 1994, dated 1996).

Structures are written as SMILES. Structures can show the parent of a compound that is named as a salt. Where two headings read alike, the source gives them in different places.

The target in assay [1] is T1, recombinant human-5HT1A receptors (Homo sapiens, UniProt P08908).
T1 construct: expressed in transfected cells; host or cells: 3T3 cells of mice (membranes)
T1 sequence (P08908 1-422): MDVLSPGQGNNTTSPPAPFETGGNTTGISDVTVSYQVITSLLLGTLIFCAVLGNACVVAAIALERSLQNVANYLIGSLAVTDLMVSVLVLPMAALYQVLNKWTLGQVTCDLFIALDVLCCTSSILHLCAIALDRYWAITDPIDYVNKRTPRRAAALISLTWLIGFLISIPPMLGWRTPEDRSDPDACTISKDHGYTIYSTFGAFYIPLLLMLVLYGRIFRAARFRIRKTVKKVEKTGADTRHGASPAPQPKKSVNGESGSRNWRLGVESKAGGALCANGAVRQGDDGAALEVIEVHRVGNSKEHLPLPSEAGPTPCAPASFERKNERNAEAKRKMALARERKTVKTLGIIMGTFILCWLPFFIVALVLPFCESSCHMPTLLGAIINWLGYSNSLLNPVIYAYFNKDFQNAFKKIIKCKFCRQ
Put plainly: Displacement assay with [3H]-5-HT (1 nM) on recombinant human 5HT1A receptors expressed in 3T3 cells of mice (test method a). It is filed as binding. The method, then:
(§1) The binding of compounds of formula I in accordance with the invention to serotonin receptors was determined in vitro by standard methods. The compounds were investigated in accordance with the assays given hereinafter:
[L] is the concentration of ligand and the KD value is the dissociation constant of the ligand.

Assay [2] has as its target 5HT2C receptor. Put plainly: [3H]-5-HT binding assay, 5HT2C receptor (test method b). The settings on record: radioligand [3H]-5-HT, pki = -log10 Ki. The method, then: as §1
b) For the binding to the 5HT2C receptor in accordance with the [3H]-5-HT binding assay according to the method of S.J Peroutka et al., Brain Research 584, 191-196 (1992).
(§2) The pki values (pki =-log10 Ki) of the test substances are given. The ki value is defined by the following formula: [formula] in which the IC50 values are those concentrations of test compounds in nmol by which 50% of the receptor-bound ligands are displaced. [L] is the concentration of ligand and the KD value is the dissociation constant of the ligand.

The target of assay [3] is 5HT2A receptor (Homo sapiens, UniProt P28223). Put plainly: [3H]-DOB binding assay, 5HT2A receptor (test method c). The method, then: as §1
c) For the binding to the 5HT2A receptor in accordance with the [3H]-DOB binding assay according to the method of T. Branchek et al., Molecular Pharmacology 38, 604-609 (1990).
as §2

For assay [4], the target named is T2, 5HT2C receptor (Rattus norvegicus, UniProt P08909).
T2 construct: from tissue; host or cells: living rats (in vivo, s.c. dosing)
T2 sequence (P08909 33-460): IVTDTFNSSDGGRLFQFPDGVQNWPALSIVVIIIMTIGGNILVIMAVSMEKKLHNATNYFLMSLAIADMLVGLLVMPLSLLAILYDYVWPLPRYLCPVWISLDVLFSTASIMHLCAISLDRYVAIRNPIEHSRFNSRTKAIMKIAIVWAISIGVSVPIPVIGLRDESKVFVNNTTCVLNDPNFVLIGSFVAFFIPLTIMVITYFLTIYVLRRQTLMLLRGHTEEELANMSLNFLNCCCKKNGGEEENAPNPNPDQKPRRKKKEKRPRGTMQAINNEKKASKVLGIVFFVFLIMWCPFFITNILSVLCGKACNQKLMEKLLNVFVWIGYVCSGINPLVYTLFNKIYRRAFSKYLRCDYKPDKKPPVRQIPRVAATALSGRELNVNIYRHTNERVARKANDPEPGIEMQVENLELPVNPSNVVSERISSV
Put plainly: Penile erection (rats). Conditions: 0.75 h, within 45 minutes after administration. Type of assay: in vivo. The method, then:
It has been shown that penile erection is dependent on stimulation of the 5HT2C receptor (see Berendsen & Broekkamp, Eur. J. Pharmacol. 135, 179-184 (1987)).
The number of penile erections was determined within 45 minutes after administration of the test substance. The ED50 is the dose which causes 50% of these erections.

Setting [5] is: po, p.o., read-out: ED50 penile erection, p.o.
The mark [6] stands for this setting: sc, s.c., read-out: ED50 penile erection, s.c.
Where [7] appears, read: 5HT1A, radioligand [3H]-5-HT (1 nM), pki = -log10 Ki, read-out: pKi, test method a (converted).

Sequence of 5HT2A receptor (P28223 whole entry): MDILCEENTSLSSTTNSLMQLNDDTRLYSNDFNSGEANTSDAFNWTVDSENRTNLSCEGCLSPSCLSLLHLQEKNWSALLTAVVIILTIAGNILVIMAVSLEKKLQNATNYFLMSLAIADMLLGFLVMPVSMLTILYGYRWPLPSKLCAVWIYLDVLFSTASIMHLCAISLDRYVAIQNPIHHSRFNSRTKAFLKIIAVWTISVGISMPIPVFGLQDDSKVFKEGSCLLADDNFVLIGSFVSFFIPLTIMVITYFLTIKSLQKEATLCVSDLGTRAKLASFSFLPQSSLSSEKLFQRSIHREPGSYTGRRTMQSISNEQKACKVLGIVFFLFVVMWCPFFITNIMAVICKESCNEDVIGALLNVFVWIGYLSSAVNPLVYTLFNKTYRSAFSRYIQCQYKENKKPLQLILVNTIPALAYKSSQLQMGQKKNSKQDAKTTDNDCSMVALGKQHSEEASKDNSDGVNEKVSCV

For orientation: ED50 means the midpoint of the dose-response relation. Consider `COc1ccc2c(c1)-c1c(cnn1CC(C)N)C2` (racemic) [Example 1, (RS)-2-(7-methoxy-1,4-dihydro-indeno[2,1-c]pyrazol-1-yl)-1-methyl-ethylamine fumarate (1:1)], for which the Ki in assay [1] was 355 nM; in assay [3], 93.3 nM. Besides, the “pKi, test method b” value in assay [2] is 8.26. The ED50 was 3.2 mg/kg in assay [4] (setting [5]) and 0.32 mg/kg in assay [4] (setting [6]).
`Cc1ccc2c(c1)-c1c(cnn1CC(C)N)C2(C)C` (racemic) [Example 5, (RS)-2-(4,4,7-trimethyl-1,4-dihydroindeno[2,1-c]pyrazol-1-yl)-1-methyl-ethylamine fumarate (1:1)]: the Ki in assay [1] (setting [7]) was 631 nM; in assay [3], 191 nM. Besides, in assay [2], the “pKi, test method b” value is on record as 7.90.
With `COc1ccc2c(c1)-c1c(cnn1CC(C)N)C2(C)C` (racemic) [Example 6, (RS)-2-(7-methoxy-4,4-dimethyl-1,4-dihydroindeno[2,1-c]pyrazol-1-yl)-1-methyl-ethylamine fumarate (1:1)], the Ki in assay [1] is 1820 nM; in assay [3] it was 49 nM. Moreover, the “pKi, test method b” value in assay [2] amounted to 8.33.
Turning to `COc1ccc2c(c1)-c1c(c(C)nn1CC(C)N)C2` (racemic) [Example 8], the Ki was 6760 nM in assay [1] and 832 nM in assay [3]. Further, in assay [2], the “pKi, test method b” value worked out at 7.13.
Turning to `Cc1ccc2c(c1)-c1c(cnn1CC(C)N)C2` (racemic) [Example 10, (RS)-2-(7-methyl-1,4-dihydroindeno[2,1-c]pyrazol-1-yl)-1-methyl-ethylamine fumarate (1:1)], the Ki in assay [1] (setting [7]) is 1660 nM; in assay [3] it was 50.1 nM. In assay [2], the “pKi, test method b” value is given as 8.32.
The matching figures for `CC(N)Cn1ncc2c1-c1cc(F)ccc1C2` (racemic) [Example 11, (RS)-2-(7-fluoro-1,4-dihydroindeno[2,1-c]pyrazol-1-yl)-1-methyl-ethylaminefumarate (1:1)]: 1780 nM, 263 nM and 7.51.
For the compound `CC(N)Cn1ncc2c1-c1cc(F)ccc1C2(C)C` (racemic) [Example 12, (RS)-2-(7-fluoro-4,4-dimethyl-1,4-dihydroindeno[2,1-c]pyrazol-1-yl)-1-methyl-ethylamine fumarate (1:1)], the Ki in assay [1] was 1230 nM; in assay [3], 141 nM. Also, the “pKi, test method b” value in assay [2] is 7.72.
On to `CCOc1ccc2c(c1)-c1c(cnn1CC(C)N)C2` (racemic) [Example 13, (RS)-2-(7-ethoxy-1,4-dihydroindeno[2,1-c]pyrazol-1-yl)-1-methyl-ethylaminefumarate (1:1)], for which the Ki in assay [1] (setting [7]) is 1200 nM; in assay [3] it was 49 nM. Moreover, the “pKi, test method b” value in assay [2] came out at 8.38. The results for the ED50 in assay [4] (setting [5]) and in assay [4] (setting [6]) were 2.7 mg/kg and 0.5 mg/kg, respectively.
Regarding `COc1ccc2c(c1)Cc1cnn(CC(C)N)c1-2` (racemic) [Example 14, (RS)-2-(6-methoxy-1,4-dihydroindeno[2,1-c]pyrazol-1-yl)-1-methyl-ethylamine fumarate (1:1)], the results for the Ki in assay [1] (setting [7]) and in assay [3] were 2340 nM and 1550 nM, respectively. Further, the “pKi, test method b” value in assay [2] is 6.70.
As to `COc1ccc2c(c1)-c1c(cnn1CC(C)N)CC2.O=C(O)/C=C/C(=O)O` (racemic) [Example 15, (RS)-2-(4,5-dihydro-8-methoxy-1H-benz[g]indazol-1-yl)-1-methyl-ethylamine fumarate (1:1)], the values for the Ki in assay [1] and in assay [3] were 1290 nM and 81.3 nM, respectively. The “pKi, test method b” value in assay [2] was determined as 8.28.
Turning to `COc1ccc2ccc3cnn(CC(C)N)c3c2c1` (racemic) [Example 16, (RS)-2-(8-methoxy-1H-benz[g]indazol-1-yl)-1-methyl-ethylamine fumarate (1:0.5)], the results for the Ki in assay [1] and in assay [3] were 200 nM and 25.1 nM, respectively. Further, the “pKi, test method b” value in assay [2] is 8.94.
As for `COc1ccc2c(c1)-c1c(cnn1C[C@H](C)N)C2` [Example 2, (S)-2-(7-methoxy-1,4-dihydro-indeno[2,1-c]pyrazol-1-yl)-1-methyl-ethylamine fumarate (1:1)], the Ki is 339 nM in assay [1] and 49 nM in assay [3]. Besides, the “pKi, test method b” value in assay [2] came to 8.57. Besides, the ED50 turned out to be 1.4 mg/kg in assay [4] (setting [5]) and 0.32 mg/kg in assay [4] (setting [6]).
On to `Cc1ccc2c(c1)-c1c(cnn1C[C@H](C)N)C2(C)C` [Example 3, (S)-2-(4,4,7-trimethyl-1,4-dihydro-indeno[2,1-c]pyrazol-1-yl)-1-methyl-ethylamine fumarate (1:1)], for which the Ki in assay [1] (setting [7]) is 4170 nM; in assay [3], 229 nM. Besides, the “pKi, test method b” value in assay [2] was found to be 8.32.
As for `COc1ccc2c(c1)-c1c(cnn1C[C@H](C)N)C2(C)C` [Example 4, (S)-2-(7-methoxy-4,4-dimethyl-1,4-dihydroindeno[2,1-c]pyrazol-1-yl)-1-methyl-ethylamine fumarate (1:1)], the Ki was 2630 nM in assay [1] and 37.2 nM in assay [3]. In addition, the “pKi, test method b” value in assay [2] is given as 8.65.
Turning to `COc1ccc2c(c1)-c1c(cnn1C[C@@H](C)N)C2` [Example 7, (R)-2-(7-methoxy-1,4-dihydro-indeno[2,1-c]pyrazol-1-yl)-1-methyl-ethylamine fumarate (1:1)], the Ki is 2450 nM in assay [1] and 363 nM in assay [3]. In addition, the “pKi, test method b” value in assay [2] turned out to be 7.73.
Take `CCOc1ccc2c(c1)-c1c(cnn1C[C@@H](C)N)C2` [Example 17, (R)-2-(7-ethoxy-1,4-dihydro-indeno[2,1-c]pyrazol-1-yl)-1-methyl-ethylaminefumarate (1:1)]: in assay [2], the “pKi, test method b” value was 7.40. The Ki in assay [3] is 209 nM.
As for `CCOc1ccc2c(c1)-c1c(cnn1C[C@H](C)N)C2` [Example 18, (S)-2-(7-ethoxy-1,4-dihydro-indeno[2,1-c]pyrazol-1-yl)-1-methyl-ethylaminefumarate (1:1)], the Ki was 1000 nM in assay [1] (setting [7]) and 49 nM in assay [3]. Also, in assay [2], the “pKi, test method b” value turned out to be 8.48. Also, the ED50 in assay [4] (setting [5]) was 2.3 mg/kg; in assay [4] (setting [6]), 0.7 mg/kg.
